Test results: patent EP0931078B1, “NOVEL TRICYCLIC PIPERIDINYL COMPOUNDS USEFUL AS INHIBITORS OF FARNESYL-PROTEIN TRANSFERASE” (SCHERING CORPORATION, priority 1996, dated 1998)
Read-outs that look alike come from different tables or passages of the source.

Molecular target: T1, partially purified rat brain famesyl protein transferase (FPT) (Rattus norvegicus, UniProt Q02293+Q04631)
T1 construct: partially purified rat brain famesyl protein transferase (FPT); from tissue; host or cells: rat brain
T1 sequence (Q02293 whole entry, one chain of several): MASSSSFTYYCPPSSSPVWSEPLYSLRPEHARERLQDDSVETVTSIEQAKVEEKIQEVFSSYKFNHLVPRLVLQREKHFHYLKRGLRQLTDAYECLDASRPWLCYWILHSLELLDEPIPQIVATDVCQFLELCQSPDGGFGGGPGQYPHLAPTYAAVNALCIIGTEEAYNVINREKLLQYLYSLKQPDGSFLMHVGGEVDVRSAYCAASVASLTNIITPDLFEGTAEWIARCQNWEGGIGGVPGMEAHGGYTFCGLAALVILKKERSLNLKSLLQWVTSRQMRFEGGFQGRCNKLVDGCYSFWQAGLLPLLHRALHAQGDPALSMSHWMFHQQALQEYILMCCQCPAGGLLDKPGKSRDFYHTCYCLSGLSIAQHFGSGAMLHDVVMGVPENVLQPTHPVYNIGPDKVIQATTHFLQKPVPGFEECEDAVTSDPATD
Assay: In vitro enzyme assay: inhibition of Ras-CVLS farnesylation by farnesyl protein transferase (FPT)
Format: biochemical
Protocol: • 1. In vitro enzyme assays: FPT IC50 (inhibition of famesyl protein transferase, in vitro enzyme assay) are determined by the methods disclosed in […] or WO 95/10516. […] Cell-based assay. COS IC50 values refer to the COS cells activity inhibition of Ras processing, are determined by the methods disclosed in […] or WO 95/10516.

[1] = unit printed as uM (Examples 49-54)

IC50 [µM]	IC50 [1] [µM]	Compound	also measured
0.065	–	O=C(Nc1cccnc1)C1CCCN(C2c3ccc(Cl)cc3CCc3cc(Br)cnc32)C1 (stereo not shown) [Example 11, 1-(3-bromo-8-chloro-6,11-dihydro-5H-benzo[5,6]cyclohepta [1,2-b]pyridin-11-yl)-N-(3-pyridinyl)-3-piperidinecarboxamide]	–
0.042	–	O=C(CC1CCN(C2c3ncc(Br)cc3CCc3cc(Cl)cc(Br)c32)CC1)NCc1cccnc1 (stereo not shown) [Example 45, 1-(8-Chloro-3,10-dibromo-6,11-dihydro-5H-benzo[5,6]cycloheptal[1,2-b]pyridin-11-yl)-N-(3-pyridylmethyl)-4-piperidineacetamide]	–
–	0.58	O=C(NC1CC1)[C@@H]1CCCN(C2c3ncc(Br)cc3CCc3cc(Cl)cc(Br)c32)C1 (stereo partly shown) [Example 49, N-cyclopropyl-1-(3,10-dibromo-8-chloro-6,11-dihydro-5H-benzo[5,6]cyclohepta[1,2-b]pyridin-11-yl)-3-piperidinecarboxamide]	–
–	0.96	CNC(=O)[C@@H]1CCCN(C2c3ncc(Br)cc3CCc3cc(Cl)cc(Br)c32)C1 (stereo partly shown) [Example 50, 1-(3,10-Dibromo-8-chloro-6,11-dihydro-5H-benzo[5,6]cyclohepta[1,2-b]pyridin-11-yl)-N-methyl-3-piperidinecarboxamide]	–
–	0.081	O=C(NCCc1cccnc1)[C@@H]1CCCN(C2c3ncc(Br)cc3CCc3cc(Cl)cc(Br)c32)C1 (stereo partly shown) [Example 52, 1-(3,10-Dibrorno-8-chforo-6,11-dihydro-5H-benzo[5,6]cyclohepta[1,2-b]pyridin-11-yl)-N-[2-(3-pyridinyl)ethyl]-3-piperidinecarboxamide]	–
–	0.11	CN(C)CC(=O)N1CCC(CNC(=O)[C@@H]2CCCN(C3c4ncc(Br)cc4CCc4cc(Cl)cc(Br)c43)C2)CC1 (stereo partly shown) [Example 53, 1-(3,10-Dibromo-8-chloro-6,11-dihydro-5H-benzo[5,6]cyclohepta[1,2-b]pyridin-11-yl)-N-[[1-[(dimethylamino)acetyl]-4-piperidinyl]methyl]-3-piperidinecarboxamide]	–
–	0.1	O=C(NCCCN1CCCC1=O)C1CCCN(C2c3ncc(Br)cc3CCc3cc(Cl)cc(Br)c32)C1 (stereo not shown) [Example 54, 1-(3,10-Dibromo-8-chloro-6,11-dihydro-5H-benzo[5,6]cyclohepta[1,2-b]pyridin-11-yl)-N-[3-(2-oxo-1-pyrrolidinyl)propyl]-3-piperidinecarboxamide]	–
0.3	–	O=C(NCc1cccnc1)C1CCCCN1C1c2ncc(Br)cc2CCc2cc(Cl)cc(Br)c21 (stereo not drawn) [Isomer C3 amide]	–

More lines, now with the values behind:

Compound	IC50 [µM]	IC50 [1] [µM]	also measured
O=C(NCC1CCNCC1)C1CCN(C2c3ccc(Cl)cc3CCc3cc(Br)cnc32)CC1 (stereo not shown) [Example 8 Step B, 1-(3-Bromo-8-chloro-6,11-dihydro-5H-benzo[5,6]cyclohepta[1,2-b]pyridin-11-yl)-N-(4-piperidinylmethyl)-4-piperidinecarboxamide]	–	–	inhibition at 0.38 µM (read-out: FPT Inhibition): 12%
NC(=O)NCC1CCN(C(=O)C2CCN(C3c4ccc(Cl)cc4CCc4cc(Br)cnc43)CC2)CC1 (stereo not shown) [Example 9, 1-[1-(3-Bromo-8-chloro-6,11-dihydro-5H-benzo[5,6]cyclohepta[1,2-b]pyridin-11-yl)-4-piperidinylcarbonyl]-4-[(1-aminomethanamido)methyl]piperidine]	0.66	–	–
O=C(NCc1cccnc1)C1CCCN(C2c3ccc(Cl)cc3CCc3cc(Br)cnc32)C1 (stereo not shown) [Example 10, 1-(8-chloro-3-bromo-5,6-dihydro-11H-benzo[5,6]-cyclohepta[1,2-b]pyridin-11-yl)piperidine-3-(N-3-pyridylmethylamino)carboxamide]	0.21	–	–
O=C(NCc1cccnc1)C1CCCN(C2c3ncc(Br)cc3CCc3cc(Cl)cc(Br)c32)C1 (stereo not shown) [Example 16, 1-(3,10-Dibromo-8-chloro-6,11-dihydro-5H-benzo[5,6]cyclohepta[1,2-b]pyridin-11-yl)-N-(3-pyridinylmethyl)-3-piperidinecarboxamide]	0.027	–	–
O=C(CC1CCCN(C2c3ccc(Cl)cc3CCc3cc(Br)cnc32)C1)NCc1cccnc1 (stereo not shown) [Example 18, 1-(3-Bromo-8-chloro-6,11-dihydro-5H-benzo[5,6]cyclohepta[1,2-b]pyridin-11-yl)-N-(3-pyridinylmethyl)-3-piperidineacetamide]	–	–	inhibition at 1.1 µM (read-out: FPT Inhibition): 9%
O=C(CC1CCCN(C2c3ccc(Cl)cc3CCc3cc(Br)cnc32)C1)Nc1cccnc1 (stereo not shown) [Example 19, 1-(3-Bromo-8-chloro-6,11-dihydro-5H-benzo[5,6]cyclohepta[1,2-b]pyridin-11-yl)-N-(3-pyridinyl)-3-piperidineacetamide]	–	–	inhibition at 1.1 µM (read-out: FPT Inhibition): 15%
O=C(CC1CCN(C2c3ccc(Cl)cc3CCc3cc(Br)cnc32)CC1)NCc1cccnc1 (stereo not shown) [Example 43, 1-(3-Bromo-8-chloro-6,11-dihydro-5H-benzo[5,6]cyclohepta[1,2-b]pyridin-11-yl)-N-(3-pyridylmethyl)-4-piperidineacetamide]	–	–	inhibition at 0.22 µM (read-out: FPT INH): 43%
O=C(CCC1CCN(C2c3ccc(Cl)cc3CCc3cc(Br)cnc32)CC1)NCc1cccnc1 (stereo not shown) [Example 44, 1-(3-Bromo-8-chloro-6,11-dihydro-5H-benzo[5,6]cyclohepta[1,2-b]pyridin-11-yl)-N-(3-pyridylmethyl)-4-piperidinepropanamide]	–	–	inhibition at 0.35 µM (read-out: FPT INH): 39%
